Experiments:
Format in all cases: in vivo
Resistant Myzus persicae = Resistant Myzus persicae (rMP); details: resistant strain, pepper plants, spray, mortality 5 days after treatment; 0 = BP80 >50 ppm
Resistant Bemisia tabaci = Resistant Bemisia tabaci (rBT); details: resistant strain biotype Q, adults on cotton leaf discs, mortality 4 days after treatment; 0 = BP80 >50 ppm
Method: (§1) Cotton leaf discs were placed upside down in petri dishes on water agar and treated with the diluted test solutions in a spray chamber. After drying, leaf discs were infested with 10 adult Bemisia tabaci. Dishes were covered with a fabric filter and sealed with a perforated plastic lid. 4 days after treatment samples were assessed for mortality.
Resistant Bemisia tabaci (rBT)
Biotype Q originally field-collected in 2000 from Almeria, Spain. […] The strain carried the mutation L925I in the voltage-gated sodium channel conferring resistance to pyrethroids. It also had higher expression of the p450 CYP6CM1 conferring metabolic resistance to neonicotinoids.

Bemisia tabaci = Bemisia tabaci (cotton whitefly), adult, feeding/contact (sBT); details: sensitive strain, adults on cotton leaf discs, mortality 4 days after treatment; 0 = BP80 >50 ppm
Method: Bemisia tabaci (Cotton Whitefly), Adult, Feeding/Contact (sBT)
as §1

Myzus persicae = Myzus persicae (green peach aphid), mixed population, feeding/contact (sMP); details: sensitive strain, pepper plants, spray, mortality 5 days after treatment; 0 = BP80 >50 ppm
Method: Myzus persicae (Green Peach Aphid), Mixed Population, Feeding/Contact (sMP)
Pepper plants were infested with an Myzus persicae population of mixed ages. One day after infestation the plants were treated with the diluted test solutions in a spray chamber. 5 days after treatment samples were assessed for mortality.

CC[S@@](=N)(=O)c1cc(C2(C#N)CC2)cnc1-c1nc2cc(C(F)(F)F)cnc2n1C [P24, (R)-1-[5-(ethyl-sulfonimidoyl)-6-[3-methyl-6-(trifluoromethyl)imidazo[4,5-b]pyridin-2-yl]-3-pyridyl]cyclo-propanebonitrile]
pBP80 r-MP (Resistant Myzus persicae): 4.5
pBP80 rBT (Resistant Bemisia tabaci): 3.9
pBP80 sBT (Bemisia tabaci): 5.1
pBP80 s-MP (Myzus persicae): 5.2

— patent US20260271928A1, “CONTROL OF PESTS RESISTANT TO INSECTICIDES” (Syngenta Crop Protection Ag, priority 2023, published 2026)
